Test results: US10358419B2, “1,3-dipolar [70]fulleropyrrolidinium iodide derivatives” (priority 2015, dated 2019)

Columns and labels:
[1] = tested on: VSV-G pseudotyped HIV-1 luciferase reporter virus (HIVluc); format: cell-based
[2] = target: recombinant HIV-1 protease (Human immunodeficiency virus type 1 group M subtype B, UniProt P03366); experiment: HIV-1 protease in vitro activity assay (FRET peptide)
[3] = tested on: HIV-1NL4-3; experiment: HIV-1 NL4-3 replication assay in SupT1 cells (p24 ELISA)
[4] = Solubility (UV-vis spectroscopy, solvents); settings: saturated solutions

Compound	reduction of infectivity / inhibition [1] [%]	Effect on HIV-1 infectivity (FIG. 1) [1]	infectivity as compared to control (100%) infectivity [1] [%]	inhibition of protease activity ([2]; at 80 μM) [%]	inhibition of protease activity ([2]; at 40 (unit not given)) [%]	Effect on HIV-1 replication (FIG. 9C) ([3]; 3 μM at time of infection, washed after 24 h)	Effect on HIV-1NL4-3 replication (FIG. 3) ([3]; 6 μM for 24 hrs, given 24 hours after infection, p24 followed seven additional days)	solubility in H2O:DMSO (9:1) [4] [nM]
CC(C)(C)NC(=O)[C@@H]1CN(Cc2cccnc2)CCN1C[C@@H](O)C[C@@H](Cc1ccccc1)C(=O)N[C@H]1c2ccccc2C[C@H]1O [Indinavir, reference compound]	96.6							
α-N,N-dimethyl[70]fulleropyrrolidinium iodide [Compound 2b]	52	potently blocked the infectivity of HIV-1	0.047	65	24			
mixture of α, β and γ-N—N-dimethyl[70]fulleropyrrolidinium iodide [Compound 2a]	72	potently blocked the infectivity of HIV-1	0.026			potent inhibitory effect	able to impair viral replication	
β-N,N-dimethyl[70]fulleropyrrolidinium iodide [Compound 2c]	71	potently blocked the infectivity of HIV-1	0.003					0.252
